What was measured:
Assay type in all cases: cell-based
[1] = system: A431 cells; assay: In vitro tumor cell proliferation assay (Cell Titer-Glo) in A431 cells; details: Homo sapiens, A-431, 72 h, A431 human epidermoid carcinoma overexpressing HER1; 72 hours exposure; read-out: IC50, activities in A431 cell lines
Method in brief: (§1)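 Viability after 72 h drug exposure at 37 °C was read as CellTiter-Glo ATP luminescence, giving IC50. Cells (2.5×10^3/well, RPMI + 10% FBS) were compound-treated one day post-seeding, 0.1% DMSO final: A431 overexpresses HER1, N87 overexpresses HER2 and HER1.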

[2] = system: N87; assay: In vitro tumor cell proliferation assay (Cell Titer-Glo) in N87 cells; details: N87 human gastric carcinoma overexpressing HER2 and HER1; 72 hours exposure; read-out: IC50, activities in N87 cell lines
Method in brief: as §1

[3] = system: H1975 cells; assay: In vitro tumor cell proliferation assay (Cell Titer-Glo) in H1975 cells; details: NCI-H1975; H1975 human NSCLC expressing mutant HER1 (L858R,T790M); 72 hours exposure; read-out: IC50, activities in H 1975 cell lines
Method in brief: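 After 72 h compound exposure at 37° C (top 10 uM down to 64 pM, 0.1% DMSO), viability of EGFR L858R/T790M-mutant H1975 cells was read as ATP luminescence.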

IC50 [1] [µM] | IC50 [2] [µM] | IC50 [3] [µM] | Compound
0.2 to 1 | < 0.2 | 0.2 to 1 | CCN(C/C=C/C(=O)N1CCc2c(sc3ncnc(Nc4cccc(Br)c4)c23)C1)C1CCCCC1 [Example 201, N-(3-bromophenyl)-7-{(2E)-4-[cyclohexyl(ethyl)amino]but-2-enoyl}-5,6,7,8-tetrahydropyrido [4′,3′:4,5]thieno[2,3-d]pyrimidin-4-amine]
< 0.2 | < 0.2 | 0.2 to 1 | CN(C)C/C=C/C(=O)N1CCc2c(sc3ncnc(Nc4ccc(OCc5ccccn5)c(Cl)c4)c23)C1 [Example 3, N-[3-chloro-4-(pyridin-2-ylmethoxy)phenyl]-7-[(2E)-4-(dimethylamino)but-2-enoyl]-5,6,7,8-tetrahydropyrido[4′,3′:4,5]thieno[2,3-d]pyrimidin-4-amine]
1 to 10 | < 0.2 | 1 to 10 | CN(C)C/C=C/C(=O)N1CCc2c(sc3ncnc(Nc4ccc(F)cc4)c23)C1 [Example 175, 7-[(2E)-4-(dimethylamino)but-2-enoyl]-N-(4-fluorophenyl)-5,6,7,8-tetrahydropyrido [4′,3′:4,5]thieno[2,3-d]pyrimidin-4-amine]
0.2 to 1 | < 0.2 | 0.2 to 1 | CN(C)C/C=C/C(=O)N1CCc2c(sc3ncnc(Nc4ccc5c(cnn5Cc5ccccc5)c4)c23)C1 [Example 97, N-(1-benzyl-1H-indazol-5-yl)-7-[(2E)-4-(dimethylamino)but-2-enoyl]-5,6,7,8-tetrahydropyrido [4′,3′:4,5]thieno[2,3-d]pyrimidin-4-amine]
< 0.2 | < 0.2 | 0.2 to 1 | O=C(/C=C/CN1CCCCC1)N1CCc2c(sc3ncnc(Nc4ccc(F)c(Cl)c4)c23)C1 [Example 12, N-(3-chloro-4-fluorophenyl)-7-[(2E)-4-piperidin-1-ylbut-2-enoyl]-5,6,7,8-tetrahydropyrido[4′,3′:4,5]thieno[2,3-d]pyrimidin-4-amine]
1 to 10 | < 0.2 | 0.2 to 1 | CCN(C)C/C=C/C(=O)N1CCc2c(sc3ncnc(Nc4ccc(OCc5cccnc5)c(Cl)c4)c23)C1 [Example 90, N-[3-chloro-4-(pyridin-3-ylmethoxy)phenyl]-7-{(2E)-4-[ethyl(methyl)amino]but-2-enoyl}-5,6,7,8-tetrahydropyrido [4′,3′:4,5]thieno[2,3-d]pyrimidin-4-amine]
0.2 to 1 | < 0.2 | 0.2 to 1 | O=C(C#CCCN1CCCCC1)N1CCc2c(sc3ncnc(Nc4ccc(OCc5cccc(F)c5)c(Cl)c4)c23)C1 [Example 142, N-{3-chloro-4-[(3-fluorobenzyl)oxy]phenyl}-7-(5-piperidin-1-ylpent-2-ynoyl)-5,6,7,8-tetrahydropyrido [4′,3′:4,5]thieno[2,3-d]pyrimidin-4-amine]
< 0.2 | < 0.2 | 1 to 10 | O=C(/C=C/CN1CCOCC1)N1CCc2c(sc3ncnc(Nc4ccc(OCc5cccc(F)c5)c(Cl)c4)c23)C1 [Example 10, N-{3-chloro-4-[(3-fluorobenzyl)oxy]phenyl}-7-[(2E)-4-morpholin-4-ylbut-2-enoyl]-5,6,7,8-tetrahydropyrido[4′,3′:4,5]thieno[2,3-d]pyrimidin-4-amine]
< 0.2 | < 0.2 | 1 to 10 | CN1CCN(C/C=C/C(=O)N2CCc3c(sc4ncnc(Nc5ccc(OCc6ccccn6)c(Cl)c5)c34)C2)CC1 [Example 5, N-[3-chloro-4-(pyridin-2-ylmethoxy)phenyl]-7-[(2E)-4-(4-methylpiperazin-1-yl)but-2-enoyl]-5,6,7,8-tetrahydropyrido[4′,3′:4,5]thieno[2,3-d]pyrimidin-4-amine]
0.2 to 1 | < 0.2 | 1 to 10 | CN(C/C=C/C(=O)N1CCc2c(sc3ncnc(Nc4ccc(Cl)c(Cl)c4)c23)C1)C1CCCCC1 [Example 203, 7-{(2E)-4-[cyclohexyl(methyl)amino]but-2-enoyl}-N-(3,4-dichlorophenyl)-5,6,7,8-tetrahydropyrido [4′,3′:4,5]thieno[2,3-d]pyrimidin-4-amine]
1 to 10 | < 0.2 | 1 to 10 | C=C(CN1CCOCC1)C(=O)N1CCc2c(sc3ncnc(Nc4ccc(OCc5ccccn5)c(Cl)c4)c23)C1 [Example 144]
0.2 to 1 | < 0.2 | 0.2 to 1 | CCN(CC)C/C=C/C(=O)N1CCc2c(sc3ncnc(Nc4ccc5c(ccn5Cc5ccccn5)c4)c23)C1 [Example 121, 7-[(2E)-4-(diethylamino)but-2-enoyl]-N-[1-(pyridin-2-ylmethyl)-1H-indol-5-yl]-5,6,7,8-tetrahydropyrido [4′,3′:4,5]thieno[2,3-d]pyrimidin-4-amine]
1 to 10 | < 0.2 | 0.2 to 1 | O=C(/C=C/CN1CCCCC1)N1CCc2c(sc3ncnc(Nc4ccc5c(ccn5Cc5ccccc5)c4)c23)C1 [Example 96, N-(1-benzyl-1H-indol-5-yl)-7-[(2E)-4-piperidin-1-ylbut-2-enoyl]-5,6,7,8-tetrahydropyrido [4′,3′:4,5]thieno[2,3-d]pyrimidin-4-amine]
1 to 10 | < 0.2 | 0.2 to 1 | O=C(/C=C/CN1CCCC1)N1CCc2c(sc3ncnc(Nc4ccc(OCc5cnccn5)c(Cl)c4)c23)C1 [Example 83, N-[3-chloro-4-(pyrazin-2-ylmethoxy)phenyl]-7-[(2E)-4-pyrrolidin-1-ylbut-2-enoyl]-5,6,7,8-tetrahydropyrido [4′3′:4,5]thieno[2,3-d]pyrimidin-4-amine]
< 0.2 | < 0.2 | 1 to 10 | CCN(CC)C/C=C/C(=O)N1CCc2c(sc3ncnc(Nc4ccc(OCc5cccc(F)c5)c(Cl)c4)c23)C1 [Example 13, N-{3-chloro-4-[(3-fluorobenzyl)oxy]phenyl}-7-[(2E)-4-(diethylamino)but-2-enoyl]-5,6,7,8-tetrahydropyrido[4′,3′:4,5]thieno[2,3-d]pyrimidin-4-amine]
1 to 10 | 0.2 to 5 | 1 to 10 | C=C(CN1CCOCC1)C(=O)N1CCc2c(sc3ncnc(Nc4ccc(F)c(Cl)c4)c23)C1 [Example 145, N-(3-chloro-4-fluorophenyl)-7-[2-(morpholin-4-ylmethyl)acryloyl]-5,6,7,8-tetrahydropyrido [4′,3′:4,5]thieno[2,3-d]pyrimidin-4-amine]
1 to 10 | < 0.2 | 0.2 to 1 | CCN(CC)C/C=C/C(=O)N1CCc2c(sc3ncnc(Nc4ccc(OCc5cccnc5)c(Cl)c4)c23)C1 [Example 86, N-[3-chloro-4-(pyridin-3-ylmethoxy)phenyl]-7-[(2E)-4-(diethylamino)but-2-enoyl]-5,6,7,8-tetrahydropyrido [4′,3′:4,5]thieno[2,3-d]pyrimidin-4-amine]
1 to 10 | < 0.2 | 1 to 10 | CC1CCC(C)N1C/C=C/C(=O)N1CCc2c(sc3ncnc(Nc4ccc(OCc5ccccn5)c(Cl)c4)c23)C1 (stereo not drawn) [Example 48, N-[3-chloro-4-(pyridin-2-ylmethoxy)phenyl]-7-[(2E)-4-(2,5-dimethylpyrrolidin-1-yl)but-2-enoyl]-5,6,7,8-tetrahydropyrido [4′,3′:4,5]thieno[2,3-d]pyrimidin-4-amine]
0.2 to 1 | < 0.2 | 1 to 10 | CC1CN(C/C=C/C(=O)N2CCc3c(sc4ncnc(Nc5ccc(F)c(Cl)c5)c34)C2)CC(C)O1 (stereo not drawn) [Example 41]
